Measured values from the supplement of paper PMC10307832.

What follows are cell lines tested with CC1=C(N=C(N=C1N)[C@H](CC(=O)N)NC[C@@H](C(=O)N)N)C(=O)N[C@@H]([C@H](C2=CN=CN2)OC3C(C(C(C(O3)CO)O)O)OC4C(C(C(C(O4)CO)O)OC(=O)N)O)C(=O)N[C@H](C)[C@H]([C@H](C)C(=O)N[C@@H]([C@@H](C)O)C(=O)NCCC5=NC(=CS5)C6=NC(=CS6)C(=O)NCCC[S+](C)C)O [Bleomycin] (assay: relative viability (nuclei count vs DMSO), 5 days (fraction); higher = more cells survive). Settings: 1 µM; main component drawn.
Outline: (§1)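 Lung cancer cell lines in 1536-well plates were kept overnight at 37 °C, then pinned with five library-drug doses (not always all listed) spaced by √10 on vehicle-anchored plates. After 5 days without medium change, cells were fixed, permeabilised and Hoechst-stained in one step, imaged at 4×, and nuclei were counted with MetaXpress. Viability is treated-well nuclei divided by vehicle-well nuclei, taken as the median over plates. Plates passed only with control CV below 25% and at least one doubling.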

Cell Line	relative viability
NCI-H1563	0.652

Each cell line was assayed with COc1cc([C@@H]2c3cc4c(cc3[C@@H](O[C@@H]3O[C@@H]5CO[C@@H](C)O[C@H]5[C@H](O)[C@H]3O)[C@H]3COC(=O)[C@H]23)OCO4)cc(OC)c1O [Etoposide] in the same assay as above. Settings: 0.01 µM.
Outline: as §1

Cell Line	relative viability
NCI-H1734	0.979
NCI-H520	0.881
NCI-H2405	1.04
SW 1573	0.968
NCI-H1395	0.872
201T	0.906
NCI-H1915	1
HCC-827	1.07
LXF-289	1.05
NCI-H2347	1
NCI-H1299	1.01
NCI-H650	0.949
CAL-12T	0.946
NCI-H1651	0.976
EPLC-272H	1.05
NCI-H23	1.02
NCI-H1792	1.01
NCI-H1355	0.947
NCI-H322M	0.947
NCI-H1437	1.04
NCI-H1755	0.998
NCI-H2023	0.868
HCC-15	1.01
NCI-H1793	0.813
PC-3 [JPC-3]	1.03
EKVX	0.998
LC-2-ad	0.974
NCI-H1563	0.816

Same assay, conditions: 0.03162 µM

Cell Line	relative viability
NCI-H1734	1.2
NCI-H520	0.879
NCI-H2405	1.09
SW 1573	0.986
NCI-H1395	0.961
201T	0.988
NCI-H1915	1.1
HCC-827	1.08
LXF-289	1.04
NCI-H2347	1.01
NCI-H1299	0.995
NCI-H650	0.98
CAL-12T	1.04
NCI-H1651	0.997
EPLC-272H	1.09
NCI-H23	1.03
NCI-H1792	1.22
NCI-H1355	1.08
NCI-H322M	1.05
NCI-H1437	1.07
NCI-H1755	1.05
NCI-H2023	1.02
HCC-15	1.07
NCI-H1793	1.12
PC-3 [JPC-3]	1.1
EKVX	1.01
LC-2-ad	1.07
NCI-H1563	0.974

Same assay, conditions: 0.1 µM

Cell Line	relative viability
NCI-H1734	0.597
NCI-H520	0.636
NCI-H2405	0.772
SW 1573	0.635
NCI-H1395	0.804
201T	0.845
NCI-H1915	0.891
HCC-827	0.965
LXF-289	1.13
NCI-H2347	0.733
NCI-H1299	1.07
NCI-H650	0.68
CAL-12T	0.797
NCI-H1651	0.792
EPLC-272H	0.658
NCI-H23	0.671
NCI-H1792	0.522
NCI-H1355	0.535
NCI-H322M	0.822
NCI-H1437	0.999
NCI-H1755	0.963
NCI-H2023	0.599
HCC-15	1
PC-3 [JPC-3]	1.07
EKVX	0.637
LC-2-ad	0.837
NCI-H1563	0.791

Same assay, conditions: 0.3162 µM

Cell Line	relative viability
NCI-H1734	0.676
NCI-H520	0.87
NCI-H2405	0.835
SW 1573	0.309
NCI-H1395	0.781
201T	0.881
NCI-H1915	0.889
HCC-827	0.659
LXF-289	0.878
NCI-H2347	0.541
NCI-H1299	0.932
NCI-H650	0.561
CAL-12T	0.726
NCI-H1651	0.485
EPLC-272H	0.815
NCI-H23	0.371
NCI-H1792	0.816
NCI-H1355	0.713
NCI-H322M	0.838
NCI-H1437	0.68
NCI-H1755	0.935
NCI-H2023	0.465
HCC-15	0.485
NCI-H1793	0.758
PC-3 [JPC-3]	0.989
EKVX	0.741
LC-2-ad	0.718
NCI-H1563	0.641

Same assay, conditions: 1 µM

Cell Line	relative viability
NCI-H1734	0.304
NCI-H520	0.709
NCI-H2405	0.47
SW 1573	0.167
NCI-H1395	0.658
201T	0.526
NCI-H1915	0.684
HCC-827	0.258
LXF-289	0.311
NCI-H2347	0.45
NCI-H1299	0.779
NCI-H650	0.256
CAL-12T	0.333
NCI-H1651	0.199
EPLC-272H	0.513
NCI-H23	0.212
NCI-H1792	0.416
NCI-H1355	0.33
NCI-H322M	0.52
NCI-H1437	0.343
NCI-H1755	0.829
NCI-H2023	0.148
HCC-15	0.182
NCI-H1793	0.334
PC-3 [JPC-3]	0.837
EKVX	0.377
LC-2-ad	0.261
